Assay results: the NIST ThermoML archive (doi:10.1021/je030226s)

How the values were obtained:
[1] = xn = mol fraction of the nth substance listed; conditions: 101.32 kPa, Liquid
[2] = refractive index (Na D-line) (dimensionless); xn = mol fraction of the nth substance listed; conditions: 101.32 kPa, Liquid

CCCCCl [1-chlorobutane] + CCO
Conditions | mass density, 288.15 K [kg/m3] | mass density, 298.15 K [kg/m3] | mass density, 308.15 K [kg/m3] | refractive index, 288.15 K | refractive index, 298.15 K | refractive index, 308.15 K | viscosity, 288.15 K [mPa·s] | viscosity, 298.15 K [mPa·s] | viscosity, 308.15 K [mPa·s]
[1], x2 = 0 | 892.2 | 881 | 869.7 | – | – | – | 0.472 | 0.423 | 0.382
[1], x2 = 0.05 | 888.5 | 877.3 | 866 | – | – | – | 0.475 | 0.424 | 0.384
[1], x2 = 0.1 | 885.3 | 874.2 | 862.8 | – | – | – | 0.479 | 0.428 | 0.388
[1], x2 = 0.2 | 878.7 | 867.7 | 856.4 | – | – | – | 0.5 | 0.442 | 0.395
[1], x2 = 0.3 | 871.7 | 860.8 | 849.7 | – | – | – | 0.529 | 0.465 | 0.41
[1], x2 = 0.4 | 864.1 | 853.4 | 842.4 | – | – | – | 0.566 | 0.493 | 0.43
[1], x2 = 0.5 | 855.7 | 845.2 | 834.5 | – | – | – | 0.63 | 0.543 | 0.469
[1], x2 = 0.6 | 846.4 | 836.1 | 825.7 | – | – | – | 0.708 | 0.601 | 0.515
[1], x2 = 0.7 | 835.8 | 825.9 | 815.8 | – | – | – | 0.807 | 0.68 | 0.581
[1], x2 = 0.8 | 823.9 | 814.4 | 804.7 | – | – | – | 0.932 | 0.781 | 0.67
[1], x2 = 0.9 | 810 | 800.9 | 791.7 | – | – | – | 1.099 | 0.903 | 0.765
[1], x2 = 0.95 | 802.2 | 793.4 | 784.5 | – | – | – | 1.209 | 0.994 | 0.839
[2], x2 = 0 | – | – | – | 1.4045 | 1.3993 | 1.3941 | – | – | –
[2], x2 = 0.05 | – | – | – | 1.403 | 1.3978 | 1.3925 | – | – | –
[2], x2 = 0.1 | – | – | – | 1.4016 | 1.3964 | 1.3912 | – | – | –
[2], x2 = 0.2 | – | – | – | 1.3988 | 1.3937 | 1.3885 | – | – | –
[2], x2 = 0.3 | – | – | – | 1.3958 | 1.3907 | 1.3855 | – | – | –
[2], x2 = 0.4 | – | – | – | 1.3925 | 1.3875 | 1.3823 | – | – | –
[2], x2 = 0.5 | – | – | – | 1.389 | 1.384 | 1.3788 | – | – | –
[2], x2 = 0.6 | – | – | – | 1.3851 | 1.3802 | 1.375 | – | – | –
[2], x2 = 0.7 | – | – | – | 1.3807 | 1.3759 | 1.3708 | – | – | –
[2], x2 = 0.8 | – | – | – | 1.3756 | 1.3711 | 1.3661 | – | – | –
[2], x2 = 0.9 | – | – | – | 1.3697 | 1.3653 | 1.3609 | – | – | –
[2], x2 = 0.95 | – | – | – | 1.3665 | 1.3624 | 1.3581 | – | – | –

CCO [ethanol] + CCCCCl
x1 = 1
Conditions | mass density, 288.15 K [kg/m3] | mass density, 298.15 K [kg/m3] | mass density, 308.15 K [kg/m3] | refractive index, 288.15 K | refractive index, 298.15 K | refractive index, 308.15 K | viscosity, 288.15 K [mPa·s] | viscosity, 298.15 K [mPa·s] | viscosity, 308.15 K [mPa·s]
[1] | 793.8 | 785.2 | 776.6 | – | – | – | 1.317 | 1.085 | 0.902
[2] | – | – | – | 1.363 | 1.3591 | 1.355 | – | – | –
